Structures can show the parent of a compound that is named as a salt. Residues, ends and D or L forms follow the SMILES beside them.

This test deals with A549. Nature of the test: Antiproliferative against human A549 cells assessed as viable cells pretreated with MS023 for 24 hrs followed by compound addition at 10 uM measured after for 24 hrs relative to control. The settings on record: A549, 24 h, read-out: Activity.
`N#CC[C@H](C1CCCC1)n1cc(-c2ncnc3[nH]ccc23)cn1` [RUXOLITINIB]: the viability at 10 µM is 54.2%.

With `Cc1cc(N2C[C@@H](C)N[C@@H](C)C2)ncc1-c1ccc(-c2nc3c(ccn3C)c(=O)[nH]2)cc1`, the viability at 10 µM was 54.2%. With `CC(C)C[C@H](NC(=O)[C@H](Cc1ccccc1)NC(=O)[C@H](CCC(N)=O)NC(=O)[C@H](Cc1ccc(O)cc1)NC(=O)[C@H](C)NC(=O)CNC(=O)[C@H](CCCCN)NC(=O)[C@H](Cc1c[nH]c2ccccc12)NC(=O)[C@@H](NC(=O)[C@H](Cc1c[nH]c2ccccc12)NC(=O)[C@H](CCCCN)NC(=O)CNC(=O)[C@H](CC(N)=O)NC(=O)[C@H](CCC(=O)O)NC(=O)[C@H](Cc1c[nH]c2ccccc12)NC(=O)[C@@H](NC(=O)[C@H](Cc1c[nH]c2ccccc12)NC(=O)[C@H](CO)NC(=O)CNC(=O)[C@@H]1CCCN1C(=O)[C@H](Cc1c[nH]c2ccccc12)NC(=O)[C@H](CCC(N)=O)NC(=O)[C@H](Cc1ccccc1)NC(=O)CNC(=O)[C@@H](N)Cc1cnc[nH]1)[C@@H](C)O)[C@@H](C)O)C(=O)N[C@@H](CCCCN)C(=O)NCC(=O)NCC(=O)NCC(=O)NCC(=O)N[C@@H](CO)C(=O)N[C@@H](CCCNC(=N)N)C(=O)N[C@@H](CCCNC(=N)N)C(=O)N[C@@H](CCCNC(=N)N)C(=O)N[C@@H](CCCNC(=N)N)C(=O)N[C@@H](CCCNC(=N)N)C(=O)N[C@@H](CCCNC(=N)N)C(=O)N[C@@H](CCCNC(=N)N)C(=O)N[C@@H](CCCNC(=N)N)C(=O)N[C@@H](CCCNC(=N)N)C(=O)O` (H-HGFQWPGSWTWENGKWTWKGAYQFLKGGGGSRRRRRRRRR-OH), the viability at 10 µM came out at 54.2%.

For the compound `O=C(CCCCCCNC(=O)c1cnc(N(c2ccccc2)c2ccccc2)nc1)NO` [RICOLINOSTAT], the viability at 10 µM worked out at 54.2%. To `NC(=O)c1cccc(N)c1` [3-AMINOBENZAMIDE] belongs 54.2%; to `CO[C@@]12[C@H](COC(N)=O)C3=C(C(=O)C(C)=C(N)C3=O)N1C[C@@H]1N[C@@H]12` [MITOMYCIN], 54.2%.

Consider `Cc1cnc(Nc2ccc(OCCN3CCCC3)cc2)nc1Nc1cccc(S(=O)(=O)NC(C)(C)C)c1` [FEDRATINIB], for which the viability at 10 µM amounted to 54.2%. To `O=C(O)[C@]1(Cc2cccc(Nc3nccs3)n2)CC[C@@H](Oc2cccc(Cl)c2F)CC1` [MK-5108] belongs 54.2%. The same measure for `C[C@H](NC(=O)CCc1nc2ccccc2c(=O)[nH]1)c1ccccc1`: 54.2%; for `CCCCc1nc2cc(/C=C/C(=O)NO)ccc2n1CCN(CC)CC` [PRACINOSTAT]: 54.2%; for `O=C(/C=C/N1C[C@H]2C[C@@H]1CN2c1ccccn1)c1ccccc1O`: 54.2%. Regarding `CCS(=O)(=O)N1CC(CC#N)(n2cc(-c3ncnc4[nH]ccc34)cn2)C1` [BARICITINIB], the viability at 10 µM turned out to be 54.2%. The same measure for `O=C(O)c1ccc(O)c2ncccc12`: 54.2%; for `Nc1ccn([C@@H]2O[C@H](CO)[C@@H](O)C2(F)F)c(=O)n1` [GEMCITABINE]: 54.2%; for `C1=N/C2=N/c3ccc(OCCN4CCCC4)c(c3)COC/C=C/COCc3cccc(c3)C(=C1)N2` [PACRITINIB]: 54.2%. To `CNNCc1ccc(C(=O)NC(C)C)cc1` belongs 54.2%; to `CCCCCCCc1ccc(CCc2cccc(O)c2C(=O)O)cc1`, 54.2%. The same measure for `O=c1c(O)c(-c2ccc(O)c(O)c2)oc2cc(O)cc(O)c12` [QUERCETIN]: 54.2%; for `CC(C)N(CCCNC(=O)Nc1ccc(C(C)(C)C)cc1)C[C@H]1O[C@@H](n2ccc3c(N)ncnc32)[C@H](O)[C@@H]1O`: 54.2%; for `O=C(c1ccc(/C=C/c2n[nH]c3ccccc23)cc1)N1CCNCC1` [KW-2449]: 54.2%.

As for `O=C(c1ccc(C(=O)N2CCC(N3CCCC3)CC2)c(Nc2ccccc2)c1)N1CCC(N2CCCC2)CC1`, the viability at 10 µM was 54.2%. The same measure for `CC(=O)N1c2ccc(-c3ccc(C(=O)O)cc3)cc2[C@H](Nc2ccc(Cl)cc2)C[C@@H]1C`: 54.2%; for `Cc1cnc(Nc2ccc(N3CCN(C)CC3)cc2)nc1Nc1cccc(S(=O)(=O)NC(C)(C)C)c1`: 54.2%; for `O=C(/C=C/c1ccc(CN(CCO)CCc2c[nH]c3ccccc23)cc1)NO` [DACINOSTAT]: 54.2%. Take `CNS(=O)(=O)C[C@H]1CC[C@H](N(C)c2[nH]cnc3nccc2-3)CC1` [OCLACITINIB]: the viability at 10 µM is 54.2%.

In the case of `O=C(COc1cccc2c(=O)[nH]ccc12)c1ccccc1`, the viability at 10 µM was 54.2%.

Turning to `Cc1[nH]c2ccccc2c1CCNCc1ccc(/C=C/C(=O)NO)cc1` [PANOBINOSTAT], the viability at 10 µM was 54.2%. To `Cc1cc(Cl)ccc1OCCCC(=O)NO` belongs 54.2%. On to `c1ccc([C@@H]2C[C@H]2NC2CCNCC2)cc1`, for which the viability at 10 µM is 54.2%. To `O=C(NC[C@H](O)CN1CCc2ccccc2C1)c1ccnc(NC2CCC2)c1` belongs 54.2%. The same measure for `Cc1nc(N)sc1-c1ccnc(Nc2ccc(N3CCOCC3)cc2)n1` [CYC-116]: 54.2%. To `COc1cc(-c2cn(C)c(=O)c3cnccc23)cc(OC)c1CN(C)C` belongs 54.2%; to `CCCOc1ccc(CCc2nc3cc(-c4c(C)noc4C)ccc3n2CCN2CCOCC2)cc1`, 54.2%; to `Nc1ccccc1NC(=O)c1ccc(CNC(=O)OCc2cccnc2)cc1` [ENTINOSTAT], 54.2%. `COc1cc2c(Nc3ccc(NC(=O)c4ccccc4)cc3)ncnc2cc1OCCCN1CCOCC1`: the viability at 10 µM came out at 54.2%. To `CN1CCC(CNc2ccc3ncc(-c4cccc(OC(F)(F)F)c4)n3n2)CC1` [SGI-1776] belongs 54.2%; to `Cc1cc(Nc2cc(N3CCN(C)CC3)nc(/C=C/c3ccccc3)n2)n[nH]1` [ENMD-2076], 54.2%. To `C[C@H](NC(=O)/C(C#N)=C/c1cccc(Br)n1)c1ccccc1` [WP 1066] belongs 54.2%. The same measure for `CN(C)Cc1ccc(-c2nc3cccc4c3n2CCNC4=O)cc1`: 54.2%; for `CC(C)N(CCC(=O)c1ccc2ccccc2c1)Cc1ccccc1`: 54.2%. As for `NC(=O)C1CCCc2c1[nH]c1ccc(Cl)cc21` (stereo unspecified), the viability at 10 µM was 54.2%. The same measure for `Nc1nc(OCc2cc(Br)cs2)c2[nH]cnc2n1` [LOMEGUATRIB]: 54.2%; for `O=C(Nc1nc2cccc(-c3ccc(CN4CCS(=O)(=O)CC4)cc3)n2n1)C1CC1` [FILGOTINIB]: 54.2%; for `CC(=O)Nc1ccc(C(=O)Nc2ccccc2N)cc1` [TACEDINALINE]: 54.2%. Regarding `COC(=O)c1ccc2c(c1)nc(NC(=O)c1ccccc1)n2CCCc1ccccc1`, the viability at 10 µM came to 54.2%. The same measure for `CCn1cc(-c2ccnc3[nH]c(-c4cccc(CN(C)C)c4)cc23)c(-c2ccc(NC(=O)N(C)C)cc2)n1` [GSK-1070916]: 54.2%; for `CO[C@@H](C(=O)N1Cc2[nH]nc(NC(=O)c3ccc(N4CCN(C)CC4)cc3)c2C1)c1ccccc1` [DANUSERTIB]: 54.2%; for `COc1cc(C)[nH]c(=O)c1CNC(=O)c1c(C)n([C@H](C)C2CCOCC2)c2ccccc12`: 54.2%. To `Cn1cc(CNCC2CCN(c3ncc(C(=O)NO)cn3)CC2)c2ccccc21` [QUISINOSTAT HYDROCHLORIDE] belongs 54.2%; to `Cc1cc(Nc2ccc(NC(=O)c3ccc(Nc4ccnc5ccccc45)cc3)cc2)nc(N)n1`, 54.2%; to `CCCOc1ccn2c(C(C)=O)cc(-c3ccccc3S(C)(=O)=O)c2c1`, 54.2%. To `O=C(O)CNC(=O)c1c(O)c2ccccc2n(Cc2ccccc2)c1=O` belongs 54.2%; to `CCC(CC)(NC(=O)C(C)C)C(=O)N[C@@H](CCCNC(=N)N)C(=O)NC1(C(=O)NC(c2ccc(F)cc2)c2ccc(F)cc2)CCCC1`, 54.2%. As for `O=C(/C=C/c1cccc(S(=O)(=O)Nc2ccccc2)c1)NO` [BELINOSTAT], the viability at 10 µM stood at 54.2%. The same measure for `CC(C)c1cc2c(N3CCN(C4=NCC(C)(C)S4)CC3)ncnc2s1`: 54.2%. To `O=C(CCCCCCC(=O)Nc1ccccc1)NO` [VORINOSTAT] belongs 54.2%; to `Oc1ccc(/C=C/c2cc(O)cc(O)c2)cc1` [RESVERATROL], 54.2%; to `CC1=NN(c2ccc(C(=O)O)cc2)C(=O)/C1=C/c1ccc(-c2cc(C)c(C)cc2[N+](=O)[O-])o1`, 54.2%.

As for `Cc1cn([C@H]2O[C@@H](CO)[C@H](O)[C@H]2F)c(=O)[nH]c1=O` [CLEVUDINE], the viability at 10 µM is 54.2%.

For `CCCC(CCC)C(=O)O` [VALPROIC ACID], the viability at 10 µM was 54.2%. Consider `O=C(O)c1ccc(Nc2ncc3c(n2)-c2ccc(Cl)cc2C(c2c(F)cccc2F)=NC3)cc1` [MLN-8054], for which the viability at 10 µM came out at 54.2%. The same measure for `CN1CCCN(C(=O)c2cccc(-c3ccc(/C=C4/C(=O)Nc5ccc(Cl)cc54)o3)c2)CC1`: 54.2%. The same measure for `C/C(=N\NC(=O)c1cccc(S(=O)(=O)N2CCOCC2)c1)c1cc(Cl)ccc1O`: 54.2%. The same measure for `CCN1CCN(C(=O)Cc2ccc(Nc3ncc(F)c(Nc4ccc(C(=O)Nc5ccccc5Cl)cc4)n3)cc2)CC1`: 54.2%. Consider `Cc1nc(C(=O)NCC(=O)O)c(O)c2ccc(Oc3ccccc3)cc12` [ROXADUSTAT], for which the viability at 10 µM turned out to be 54.2%. The same measure for `CC(C)[C@H](C(=O)Nc1ccc(C(=O)NO)cc1)c1ccccc1` [AR-42]: 54.2%. To `CCNC(=O)C[C@@H]1N=C(c2ccc(Cl)cc2)c2cc(OC)ccc2-n2c(C)nnc21` [MOLIBRESIB] belongs 54.2%; to `CN(C)CCCNC(=O)c1ccc(-c2cc(O)c3ncccc3c2)cc1`, 54.2%.

Take `CCS(=O)(=O)N1CCC([C@@H](C)n2c(C)c(C(=O)NCc3c(OC)cc(C)[nH]c3=O)c3ccccc32)CC1`: the viability at 10 µM was determined as 54.2%.

With `CC[C@@](C)(Nc1ccnc(-c2c[nH]c3ncccc23)n1)C(=O)NCC(F)(F)F` [DECERNOTINIB], the viability at 10 µM was determined as 54.2%. The same measure for `COc1ccc(CCc2nc3cc(-c4c(C)noc4C)ccc3n2C[C@H](C)N2CCOCC2)cc1Cl`: 54.2%.

Source of the values: ChEMBL document CHEMBL5712922, “Synergistic effects of type I PRMT and PARP inhibitors against non-small cell lung cancer cells” (Clin Epigenetics, 2021).
